In paper PMC9937549 (Frontiers in tropical diseases, 2023):
Converted amounts (≈) assume the structure as drawn.

Assays:
[1] = system: L. donovani intracellular amastigotes infecting THP-1 cells; assay: Intracellular amastigote assay; type: cell-based, Leishmania donovani; conditions: for inhibition of parasite growth (primary screen): single point 10 μM, L. donovani amastigotes in THP-1; for EC50: read-out: Intracellular Amastigote EC50, Leishmania donovani, THP-1 host, 72 h
human serum albumin = human serum albumin (Homo sapiens, UniProt P02768); assay: Human serum albumin; type: in vitro ADME; conditions: immobilized HSA column
host THP-1 macrophages = assay: GSK LD MAC host cell toxicity readout of inMac assay; type: cell-based; conditions: read-out: LD MAC EC50; cytotoxicity against host THP-1 macrophages (GSK)
[2] = Kinetic aqueous solubility by CLND; type: physicochemical; conditions: high-throughput CLND
THP-1 cells = assay: Host THP-1 cell cytotoxicity; type: cell-based, human; conditions: for cytotoxicity to the host THP-1 cells (GI): primary screen, single point 10 μM; for CC50: read-out: Host (THP-1) cell CC50, UCSF assay
FaSSIF solubility = type: physicochemical; conditions: racemate
[3] = system: L. donovani intracellular amastigotes infecting B10R cells; assay: Intracellular amastigote assay; type: cell-based; conditions: read-out: L. donovani EC50; intracellular amastigotes infecting B10R cells (UCSD assay), average of two biological replicates
[4] = type: in vitro ADME; conditions: microsomes
[5] = Artificial membrane permeability; type: in vitro ADME; conditions: pH 7.4
host B10R cells = type: cell-based
[6] = system: L. donovani promastigotes; assay: Promastigote assay; type: cell-based; conditions: read-out: Extracellular promastigote EC50; Leishmania donovani, 72 h
Whole blood stability = type: in vitro ADME; conditions: criterion: no % reduction over 120 min; racemate
Property forecast index = type: physicochemical; conditions: ChromLogD7.4 + Aromatic rings
[7] = system: L. donovani intracellular amastigotes infecting THP-1 macrophages; assay: GSK intramacrophage L. donovani assay; type: cell-based, Leishmania donovani; conditions: read-out: LD AMMAC EC50; growth inhibition of L. donovani intracellular amastigotes infecting THP-1 macrophages (GSK)
Plasma protein binding = type: in vitro ADME; conditions: racemate, rapid equilibrium dialysis
[8] = system: L. major intracellular amastigotes; assay: Intracellular amastigote assay; type: cell-based; conditions: read-out: Intracellular Amastigote EC50; Leishmania major, THP-1 host, 72 h
HepG2 cells = assay: HepG2 cytotoxicity; type: cell-based
L. major promastigotes = assay: Promastigote assay; type: cell-based; conditions: read-out: Extracellular promastigote EC50; Leishmania major, 72 h
[9] = system: intramacrophage Leishmania; conditions: read-out: intramacrophage EC50; cited from earlier work
[10] = system: intracellular parasites of Leishmania donovani; assay: Antileishmanial potency against visceral leishmaniasis; type: cell-based; conditions: read-out: EC50 (visceral leishmaniasis)
host macrophage = assay: Host cell cytotoxicity in the same assay; type: cell-based; conditions: abstract

human serum albumin, sequence (P02768 25-609): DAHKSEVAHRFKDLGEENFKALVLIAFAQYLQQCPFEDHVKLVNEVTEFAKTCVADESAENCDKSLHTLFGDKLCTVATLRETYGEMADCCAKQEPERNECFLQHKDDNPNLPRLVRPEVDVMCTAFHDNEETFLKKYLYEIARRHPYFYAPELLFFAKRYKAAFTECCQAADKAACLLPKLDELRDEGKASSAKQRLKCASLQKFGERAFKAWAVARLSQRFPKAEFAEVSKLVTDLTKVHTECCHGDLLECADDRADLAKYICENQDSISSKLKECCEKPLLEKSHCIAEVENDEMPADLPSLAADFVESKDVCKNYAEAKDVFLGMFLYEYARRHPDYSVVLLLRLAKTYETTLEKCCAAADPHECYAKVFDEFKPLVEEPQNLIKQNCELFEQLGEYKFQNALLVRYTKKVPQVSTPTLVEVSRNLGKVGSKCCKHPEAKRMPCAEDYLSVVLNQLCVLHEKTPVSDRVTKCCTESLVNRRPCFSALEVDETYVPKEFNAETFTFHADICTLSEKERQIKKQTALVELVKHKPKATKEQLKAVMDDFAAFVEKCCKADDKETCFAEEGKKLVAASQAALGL

HSA Binding (human serum albumin) [%] | EC50 [1] [nM] | Solubility (CLND) [2] [µM] | AMP [5] [nm/s] | EC50 [6] [nM] | PFI (Property forecast index) | EC50 [7] [nM] | EC50 [8] [nM] | EC50 (L. major promastigotes) [nM] | SMILES | inhibition of parasite growth (primary screen) [1] [%] | EC50 (host THP-1 macrophages) [nM] | cytotoxicity to the host THP-1 cells (GI) (THP-1 cells) [% GI] | CC50 (THP-1 cells) [nM] | EC50 (HepG2 cells) [nM] | EC50 [9] [nM] | also measured
 |  |  |  |  |  |  |  |  | COc1ccc(N2C(=O)c3[nH]nc(CC(C)C)c3C2c2ccc(C)cc2)cc1 (stereo not shown) [CMLD007430] | 0 |  |  |  |  |  | 
96.4 | 2500 | 107 (≈ 40.6 µg/mL) | 345 | 2000 | 8.4 | 2500 | 1300 | 4400 | COc1ccc(N2C(=O)c3[nH]nc(CC(C)C)c3C2c2ccc(F)cc2)cc1 (stereo not shown) [Compound 1] | > 99 | 15800 | < 13 | > 20000 | 63100 |  | FaSSIF solubility (FaSSIF solubility): 130 µg/mL; EC50 [3]: 820 nM; Microsomal stability (mouse) Clint [4]: < 3.4 mL/min/g; Microsomal stability (mouse) t1/2 [4]: > 20 min; CC50 (host B10R cells): > 20000 nM; Whole blood stability (Whole blood stability): Pass; Plasma protein binding (Plasma protein binding): 97.5%
95.8 | 3700 | 90 (≈ 32.5 µg/mL) | 370 | 2400 | 8.4 | 3200 | 1700 | 4200 | COc1ccc(N2C(=O)c3[nH]nc(CC(C)C)c3C2c2ccccc2)cc1 (stereo not shown) [Compound 2] | > 99 | 31600 | < 13 | > 20000 | 79400 |  | 
 |  |  |  |  |  |  |  |  | C[C@H]1CN(c2n[nH]c3nc(N[C@H]4CC[C@H](NS(=O)(=O)CCC(F)(F)F)CC4)ncc23)CCO1 [GSK3186899] |  |  |  |  |  | 1400 | 
 |  |  |  |  |  |  |  |  | O=C(Nc1ccc(F)c(-c2ccn3c(N4CCOCC4)cnc3n2)c1)N1CCCC1 [GSK3494245] |  |  |  |  |  | 1600 | 
 |  |  |  |  |  |  |  |  | C[C@@H]1[C@H](O)[C@@H](C)/C=C/C=C/C=C/C=C/C=C/C=C/C=C/[C@H](O[C@@H]2O[C@H](C)[C@@H](O)[C@H](N)[C@@H]2O)C[C@@H]2O[C@](O)(C[C@@H](O)C[C@@H](O)[C@H](O)CC[C@@H](O)C[C@@H](O)CC(=O)O[C@H]1C)C[C@H](O)[C@H]2C(=O)O [amphotericin B] |  |  |  |  |  |  | EC50 [10]: 200 nM; concentration cytotoxic to the host cell (host macrophage): 5.0 µM
